Results reported in patent US20070179060A1, “6-(Poly-substituted aryl)-4-aminopicolinates and their use as herbicides” (priority 2006, published 2007).

Key:
Assay in all cases: Postemergence herbicidal safening in cereal crops
Assay type in all cases: in vivo
Conditions in all cases: Table 5, applied alone, after 3 weeks
[1] = tested on: Triticum aestivum (spring wheat)
Description: (§1) Seeds of the desired test plant species were planted in Sun Gro MetroMix® 306 planting mixture, which typically has a pH of 6.0 to 6.8 and an organic matter content of about 30 percent, in plastic pots with a surface area of 103.2 square centimeters. When required to ensure good germination and healthy plants, a fungicide treatment and/or other chemical or physical treatment was applied. The plants were grown for 7-36 days in a greenhouse with an approximate 14 hour photoperiod which was maintained at about 18° C. during the day and 17° C. during the night. Nutrients and water were added on a regular basis and supplemental lighting was provided with overhead metal halide 1000-Watt lamps as necessary. The plants were employed for testing when they reached the second or third true leaf stage. Treatments consisted of compound 42 and cloquintocet-mexyl alone and in combination. Weighed amounts were placed in 25 mL glass vials and dissolved in a volume of 97:3 v/v acetone/DMSO to obtain 9 mg ai/mL stock solutions. […] A dilution solution was prepared by mixing 1 volume of 97:3 v/v acetone/DMSO and 2 volumes of an aqueous mixture containing acetone, water, isopropyl alcohol, DMSO, Agri-dex crop oil concentrate, and Triton® X-77 surfactant in a 64.7:26.0:6.7:2.0:0.7:0.01 v/v ratio. Compound requirements are based upon a 12 mL application volume at a rate of 187 L/ha. […] Formulated compounds were applied to the plant material with an overhead Mandel track sprayer equipped with a […] nozzles calibrated to deliver 187 L/ha over an application area of 0.503 square meters at a spray height of 18 inches (43 cm) above average plant canopy height. Control plants were sprayed in the same manner with the solvent blank. The treated plants and control plants were placed in a greenhouse as described above and watered by sub-irrigation to prevent wash-off of the test compounds. After 3 weeks the condition of the test plants as compared with that of the untreated plants was determined visually and scored on a scale of 0 to 100 percent where 0 corresponds to no injury and 100 corresponds to complete kill. Colby's equation was used to determine the herbicidal effects expected from the mixtures (Colby, S. R. 1967. Calculation of the synergistic and antagonistic response of herbicide combinations. Weeds 15:20-22.). The following equation was used to calculate the expected activity of mixtures containing two active ingredients, A and B: Expected=A+B-(A×B/100) • A=observed efficacy of active ingredient A at the same concentration as used in the mixture. • B=observed efficacy of active ingredient B at the same concentration as used in the mixture.

[2] = tested on: Hordeum vulgare (winter barley)
Description: as §1

Galium aparine = tested on: Galium aparine
Description: as §1

Papaver rhoeas = tested on: Papaver rhoeas
Description: as §1

COC(=O)c1nc(-c2ccc(Cl)c(OC)c2F)cc(N)c1Cl [Compound 42, 4-Amino-3-chloro-6-(4-chloro-2-fluoro-3-methoxyphenyl)pyridine-2-carboxylic acid methyl ester]
% Control TRZAS Ob ([1]; 35 g ai/ha): 35%
% Control TRZAS Ob ([1]; 70 g ai/ha): 40%
% Control HORVW Ob ([2]; 35 g ai/ha): 0%
% Control HORVW Ob ([2]; 70 g ai/ha): 15%
% Control GALAP Ob (Galium aparine; 35 g ai/ha): 99%
% Control GALAP Ob (Galium aparine; 70 g ai/ha): 100%
% Control PAPRH Ob (Papaver rhoeas; 35 g ai/ha): 100%
% Control PAPRH Ob (Papaver rhoeas; 70 g ai/ha): 100%
